Legend:
MMP-7 = molecular target: T1, MMP-7 (Homo sapiens, UniProt P09237); test: In vitro metalloprotease inhibition, pH 7.5 with 0.02% 2-mercaptoethanol; format: biochemical; conditions: selectively inhibit one or more of MMP-2, MMP-9 and MMP-13
T1 construct: made in house; host or cells: E. coli (clone a gift of Dr. Steven Shapiro, Washington University)
T1 sequence (P09237 95-267): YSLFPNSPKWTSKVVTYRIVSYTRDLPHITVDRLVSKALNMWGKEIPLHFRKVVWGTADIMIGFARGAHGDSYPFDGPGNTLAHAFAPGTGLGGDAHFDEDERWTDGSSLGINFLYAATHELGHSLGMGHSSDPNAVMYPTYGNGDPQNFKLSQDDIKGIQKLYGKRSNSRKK
Experimental: The compounds prepared in the manner described in the Examples above were assayed for activity by an in vitro assay. […] Briefly, 4-aminophenylmercuric acetate (APMA) or trypsin-activated MMPs were incubated with various concentrations of the inhibitor compound at room temperature for 5 minutes.
MMP-1 expressed in transfected HT-1080 cells was provided by Dr. Harold Welgus of Washington University, St. Louis, Mo. The enzyme was also activated using APMA and was then purified over a hydroxamic acid column. Dr. Welgus also provided transfected HT-1080 cells that expressed MMP-9. Transfected cells that expressed MMP-2 were provided by Dr. Gregory Goldberg, also of Washington University. Studies with MMP-7 were carried out at pH 7.5 in the presence of 0.02% 2-mercaptoethanol using conditions otherwise similar to those used for the other enzymes. […]
In the absence of inhibitor activity, a fluorogenic peptide was cleaved at the gly-leu peptide bond, separating the highly fluorogenic peptide from a 2,4-dinitrophenyl quencher, resulting in an increase of fluorescence intensity (excitation at 328 nm/emission at 415 nm). Inhibition was measured as a reduction in fluorescent intensity as a function of inhibitor concentration, using a Perkin Elmer L550 plate reader. The IC50 values were calculated from those values. […]

MMP-1 = molecular target: T2, MMP-1 (Homo sapiens, UniProt P03956); test: biochemical; conditions: recombinant human MMP-1, MCA peptide substrate 4 μM, pH 7.5, room temperature; read-out: MMP-1 IC50
T2 construct: made in house; host or cells: transfected HT-1080 cells (provided by Dr. Harold Welgus, Washington University)
T2 sequence (P03956 100-469): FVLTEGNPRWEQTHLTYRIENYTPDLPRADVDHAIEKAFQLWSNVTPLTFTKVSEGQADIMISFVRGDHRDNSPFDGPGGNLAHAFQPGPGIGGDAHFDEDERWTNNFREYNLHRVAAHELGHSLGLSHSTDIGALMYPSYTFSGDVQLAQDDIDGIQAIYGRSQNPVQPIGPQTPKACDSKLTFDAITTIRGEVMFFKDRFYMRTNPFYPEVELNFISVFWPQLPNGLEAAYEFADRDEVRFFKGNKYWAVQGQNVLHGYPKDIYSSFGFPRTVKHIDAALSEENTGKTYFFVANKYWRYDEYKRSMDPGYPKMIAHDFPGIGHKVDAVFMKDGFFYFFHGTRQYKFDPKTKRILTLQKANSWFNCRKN
Procedure, shortened: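 Substrate MCA-PLGL-Dpa-AR-NH2 at 4 μM final; pH 7.5 Tris/NaCl/CaCl2 buffer with 0.05% polyethyleneglycol lauryl ether, 1% DMSO, room temperature. MMP-1 was expressed in transfected HT-1080 cells and APMA-activated.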

MMP-13 = molecular target: T3, MMP-13 (Homo sapiens, UniProt P45452); test: biochemical; conditions: recombinant human MMP-13, MCA peptide substrate 4 μM, pH 7.5, room temperature; read-out: MMP-13 IC50
T3 construct: made in house; host or cells: baculovirus / insect cells
Procedure, shortened: (§1)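 APMA- or trypsin-activated enzymes were preincubated with inhibitor for 5 min at room temperature, then the fluorogenic substrate MCA-Pro-Leu-Gly-Leu-Dpa-Ala-Arg-NH2 was added to a final 4 μM.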

MMP-2 = molecular target: T4, MMP-2 (Homo sapiens, UniProt P08253); test: biochemical; conditions: recombinant human MMP-2, MCA peptide substrate 4 μM, pH 7.5, room temperature; read-out: MMP-2 IC50
T4 construct: made in house; provided by Dr. Gregory Goldberg, Washington University
T4 sequence (P08253 110-660): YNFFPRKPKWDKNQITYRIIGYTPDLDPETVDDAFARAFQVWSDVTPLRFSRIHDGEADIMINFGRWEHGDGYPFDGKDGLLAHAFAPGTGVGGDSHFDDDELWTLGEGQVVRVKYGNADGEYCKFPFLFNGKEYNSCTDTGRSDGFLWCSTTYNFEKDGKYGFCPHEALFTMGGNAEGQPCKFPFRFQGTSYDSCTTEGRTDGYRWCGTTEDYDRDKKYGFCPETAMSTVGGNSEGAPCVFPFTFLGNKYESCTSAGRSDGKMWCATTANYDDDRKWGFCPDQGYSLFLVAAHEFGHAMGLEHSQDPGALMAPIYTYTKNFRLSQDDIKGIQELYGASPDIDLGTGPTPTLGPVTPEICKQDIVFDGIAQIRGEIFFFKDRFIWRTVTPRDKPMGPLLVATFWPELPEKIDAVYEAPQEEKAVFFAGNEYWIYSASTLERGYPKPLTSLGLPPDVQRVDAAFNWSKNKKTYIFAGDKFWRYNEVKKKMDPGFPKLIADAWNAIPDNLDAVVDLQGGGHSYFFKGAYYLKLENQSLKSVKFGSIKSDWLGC
Procedure, shortened: as §1

Structure (SMILES) | inhibition of MMP-7 compared with MMP-2, MMP-9 and MMP-13 (selectivity) (MMP-7) | IC50 (MMP-1) | IC50 (MMP-13) | IC50 (MMP-2)
Cn1cnc(S(=O)(=O)N2CCN(c3ccc(S(=O)(=O)C4(C(=O)NO)CCOCC4)cc3)CC2)c1 [Example 684] | substantially less inhibition | > 10000 nM | 60 nM | 1450 nM
N#Cc1cccc(S(=O)(=O)N2CCN(c3ccc(S(=O)(=O)C4(C(=O)NO)CCOCC4)cc3)CC2)c1 [Example 672] | substantially less inhibition | > 10000 nM | 6.7 nM | 60 nM

Reference: US6750228B1, “Aromatic sulfone hydroxamic acid metalloprotease inhibitor” (priority 1997, dated 2004)
